Test results from paper PMC6811361, “Effect of a bound anion on the structure and dynamics of halorhodopsin from Natronomonas pharaonis” (Structural Dynamics, 2019).

Key:
Format in all cases: binding
[1] = molecular target: T1, halorhodopsin from Natronomonas pharaonis (NpHR) (Natronomonas pharaonis, UniProt P15647, W127F); test: absorption and time-resolved UV resonance Raman spectroscopy; conditions: covalent, protonated Schiff base; retinal added to expression culture
T1 construct: gene hop; C-terminal His tag, expressed in E. coli BL21(DE3), solubilised and purified in DDM; all-trans-retinal on Lys256
T1 sequence (P15647 whole entry W127F): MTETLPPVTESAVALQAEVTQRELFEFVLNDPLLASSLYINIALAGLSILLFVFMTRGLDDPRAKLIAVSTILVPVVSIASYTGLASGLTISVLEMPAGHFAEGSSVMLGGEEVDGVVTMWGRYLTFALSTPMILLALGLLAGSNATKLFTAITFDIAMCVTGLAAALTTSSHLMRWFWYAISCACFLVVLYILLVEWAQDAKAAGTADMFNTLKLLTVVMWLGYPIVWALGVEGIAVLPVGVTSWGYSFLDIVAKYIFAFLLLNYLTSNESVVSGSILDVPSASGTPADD

[2] = molecular target: T2, halorhodopsin from Natronomonas pharaonis (NpHR) (Natronomonas pharaonis, UniProt P15647); test: visible resonance Raman spectroscopy (C=N stretch, deuteration shift); conditions: covalent, protonated Schiff base at Lys256; pH 7.0; chloride-bound, formate-bound and anion-depleted forms
T2 construct: gene hop; C-terminal His tag, expressed in E. coli BL21(DE3), solubilised and purified in DDM; all-trans-retinal on Lys256
T2 sequence (P15647 whole entry): as the sequence (P15647 whole entry W127F) above, with F127W counted along it

[3] = molecular target: T3, halorhodopsin from Natronomonas pharaonis (NpHR) (Natronomonas pharaonis, UniProt P15647, W229F); test: absorption and time-resolved UV resonance Raman spectroscopy; conditions: covalent, protonated Schiff base; retinal added to expression culture
T3 construct: gene hop; C-terminal His tag, expressed in E. coli BL21(DE3), solubilised and purified in DDM; all-trans-retinal on Lys256
T3 sequence (P15647 whole entry W229F): as the sequence (P15647 whole entry W127F) above, with F127W, W229F counted along it

## CC1=C(/C=C/C(C)=C/C=C/C(C)=C/C=O)C(C)(C)CCC1 [all-trans-retinal]
[1]
  absorption and time-resolved UV resonance Raman spectroscopy: sufficient amounts of the W127F and W229F NpHR mutants were obtained to measure their spectra
[2]
  visible resonance Raman spectroscopy (C=N stretch, deuteration shift): The observed deuteration shifts indicate that the Schiff base is protonated in all three forms
[3]
  absorption and time-resolved UV resonance Raman spectroscopy: sufficient amounts of the W127F and W229F NpHR mutants were obtained to measure their spectra
